These results are taken from patent US8952158B2, “Tricyclic compound and use thereof” (Ono Pharmaceutical Co., Ltd., priority 2004, dated 2015).

Data set [1] concerns Wistar male rat. The data set is described as follows: Competition experiment of MBR ligand (psychological stressor, number of dejection). The format is in vivo. On the procedure: Using a Wistar male rat, psychological stressor similar to that in Biological Example 2 described above was loaded. Each treatment group was set as follows: a medium was intravenously administered (treatment group 1), the compound of the present invention (the compound of Example 38) was intravenously administered at a dose of 0.1 mg/kg (treatment group 2), an MBR selective agonist (CB34) was intravenously administered at a dose of 1 mg/kg (treatment group 3), or after the compound of the present invention (the compound of Example 38) was intravenously administered at a dose of 0.1 mg/kg, an MBR selective agonist was intravenously administered at a dose of 0.1 mg/kg (treatment group 4). In each group, stressor loading was initiated 10 minutes after administration, and the number of dejection was counted one hour later (10 animals in each group).

Data set [2] has as its system male Sprague-Dawley (SD) rat. Description: Study on antistress effect (2): physical (restraint) stressor, number of dejection. The data set is classed as in vivo. The following applies: oral 1 mg/kg, 30 min before restraint; 60 minutes after initiation of stressor loading. On the procedure: Physical stressor was loaded using a male Sprague-Dawley (SD) rat (CHARLES RIVER LABORATORIES JAPAN, INC., 7 week old at being used) (Gastroenterology 1988; 94: pp. 611-622; Jpn. J. Phrmacol. 1998; 77: pp. 211-217). Thirty minutes after a medium (0.5% Tween 80 physiological saline) or the compound of the present invention (the compound of Example 38) was orally administered at a dose of 1 mg/kg, stressor loading was initiated by restraining both anterior branches of the rat with a binding band (Marvel Ltd.). Evaluation was performed by measuring the number of dejection 30 and 60 minutes after the initiation of stressor loading (15 animals in each group).

Data set [3] deals with Wistar male rat. Description: Study on antistress effect (1): psychological stressor, number of dejection. The data set is classed as in vivo. The following applies: 30 min before stressor, counted one hour later. On the procedure:
Psychological stressor was loaded using a Wistar male rat (Brain Res. 1994; 641: pp. 21-28). Water was accumulated by the depth of about 10 cm in a container having a platform in the center. Thirty-minutes after a medium or the compound of the present invention (the compound of Example 38) was intravenously administered at a dose of 0.01 mg/kg or orally administered at a dose of 1 mg/kg, stressor loading was initiated, and one hour later, the number of dejection was counted (10 animals in each group). The rat administered the compound of the present invention and the rat to which the stress or was not loaded had little dejection after one hour.

The subject of data set [4] is Wistar male rat. Description: Inhibitory action on abdominal pain in RCS loading model. The format is in vivo. The following applies: oral 1 mg/kg twice a day, RCS 4 days, balloon 0-1.2 mL, versus medium treatment group (FIG. 1). The text has this:
A Wistar male rat (6 week old at being received) was anesthetized with pentobarbital sodium (Kyoritsu Seiyaku Corporation), its abdomen was incised and the abdominal muscle was exposed, and then Force Transducer (F-12IS-SL (STAR MEDICAL Ltd.)) was fitted. Penicillin was intramuscular administered after the operation, and a recuperative period of 5 days was set.
During from AM 9:00 to PM 5:00 on a 1st day of the initiation of stress loading, the feeding environment temperature was alternately changed to 24° C. and 2° C. in an hour interval, and during from PM 5:00 to AM 9:00 in the next morning, the rat was fed under the environment of 2° C. […]
After RCS was loaded for 4 days, abdominal pain evaluation was performed on a 5th day (10 to 12 animals in each group). […] Contraction of abdominal muscle for extension stimulation in each balloon liquid amount was recorded using the Chart software (Chart v5.0.2. (ADInstruments Inc.)) by passing the signal from the pressure transducer amplified by the amplifier (Windo Gragf (GOULD Inc.)) through the data collection system (PowerLab (ADInstruments Inc.)). During 5 minutes in which balloon extension stimulation was loaded, the number of signals from the pressure transducer in 3 minutes was counted, and the obtained number was regarded as the number of abdominal muscle contraction and set as the index of abdominal pain.

The target in a further data set is T1, MBR (Rattus norvegicus, UniProt P16257).
T1 construct: A Wistar male rat was decapitated and the whole brain was extirpated, and then the cerebellum was removed; from tissue; host or cells: Wistar male rat brain (cerebellum removed), crude membrane preparation
The data set is described as follows: Receptor binding experiment ([3H]PK11195 competition). As to conditions: [3H]PK11195, rat membrana cerebri specimen; Cheng and Prusoff. On the procedure:
Affinity of the compound of the present invention for MBR was measured using a rat membrana cerebri specimen. The measuring method of the present invention has improved measurement accuracy and measurement sensitivity so as to evaluate the compound of the present invention as follows. A Wistar male rat was decapitated and the whole brain was extirpated, and then the cerebellum was removed. For the rat membrana cerebri specimen used in the binding experiment, 50 mmol/L of an ice-cold Iris-hydrochloric acid buffer (pH 7.4) was added and it was homogenized and centrifuged. After the resulting deposit was washed, it was resuspended to be prepared to about 1 mg/ml. The binding experiment was conducted using [^3H]PK11195 as an MBR selective ligand.
In the case of calculating the all binding amount in a saturation experiment, the membrane specimen, [^3H]PK11195 at several concentrations, dimethyl sulfoxide (DMSO) in a final concentration of 0.5 vol %, and 50 mmol/L of a tris-hydrochloric acid buffer (pH 7.4) were mixed (all amount 200 μl), followed by incubation at room temperature for one hour. In the case of calculating the nonspecific binding amount, […] in a final concentration of 20 ptrnol/L was added instead of DMSO, followed by incubation for one hour. […] After the filter was dried, radioactivity was measured by a liquid scintillation counter. […]

Data set [5] is described as follows: Oral absorbability of rat. The format is in vivo. As to conditions: plasma; fasted SD male rat; oral 1 mg/kg vs intravenous 0.1 mg/kg; from AUC; read-out: Bioavailability (B.A.). On the procedure: Using a fasted SD male rat (CHARLES RIVER LABORATORIES JAPAN, INC.), under the condition that the compound of the present invention (the compound of Example 38) was solubilized, the plasma concentration after administration in the tail vein at a dose of 0.1 mg/kg and the plasma concentration after gastric gavage administration at a dose of 1 mg/kg were measured. The blood was collected from a rat jugular vein under an unanesthetized condition 5, 15, and 30 minutes, and 1, 2, 3, 4, 6, and 8 hours after intravenous administration, and 15 and 30 minutes, and 1, 2, 3, 4, 6, and 8 hours after oral administration. Then the blood was centrifuged at 3000 rpm for 10 minutes and the supernatant was collected as plasma. The concentration of the compound in plasma was measured with LC/MS/MS (1100 HPLC System (Agilent Co. Ltd.), API 4000 (MDS SCIEX Ltd.)). From the obtained plasma concentration, an area under the curve (AUC, ngh/ml) and a maximum plasma concentration (Cmax, ng/mL) were calculated. In addition, Bioavailability (B.A.) of the compound of the present invention was calculated from AUC in oral administration and AUC in intravenous administration.

Turning to `CCCN(CCC)C(=O)c1c(-c2ccc(Cl)cc2)nc2cc(Cl)cc(Cl)n12` [CB34, 5,7-dichloro-2-(4-chlorophenyl)-3-dipropylaminocarbonylimidazo[1,2-a]pyridine, reference compound], in the data set with Wistar male rat [1] (treatment group 3: intravenous 1 mg/kg, stressor 10 min after administration, counted one hour later), the “the number of dejection: mean number” value was found to be 9.5.
With `COc1cc(Cl)ccc1[C@H]1c2[nH]c3cccc(F)c3c2C2(CC2)CN1C(C)=O` [Example 38, (1S)-2-acetyl-1-(4-chloro-2-methoxyphenyl)-5-fluoro-1,2,3,9-tetrahydrospiro[β-carboline-4,1′-cyclopropane]], the “the number of dejection: mean number” value stood at 7.3 with Wistar male rat [1] (treatment group 2: intravenous 0.1 mg/kg, stressor 10 min after administration, counted one hour later); 10.1 with Wistar male rat [1] (treatment group 4: Example 38 intravenous 0.1 mg/kg, then MBR selective agonist (CB34) intravenous 0.1 mg/kg); 7.5 in data set [2]; 8.2 in the data set with Wistar male rat [3] (intravenous administration 0.01 mg/kg); 6.2 in the data set on Wistar male rat [3] (oral administration 1 mg/kg). The “number of abdominal muscle contraction (index of abdominal pain)” value in the data set with Wistar male rat [4] is given as “significantly inhibited”. On MBR, the affinity, expressed as Ki, was 0.08 nM. For the same compound, the bioavailability in data set [5] worked out at 86.9%.

What is called Ki is the dissociation constant of the complex between target and ligand, obtained from inhibition or displacement. The term bioavailability denotes dose-corrected exposure relative to a reference, in per cent.
